Test results taken from the supplement of paper PMC5908809.

Assays:
[1] = system: normal NK cells expanded with K562-aAPC; assay: drug sensitivity score (DSS) (DSS units); higher = more sensitive; extreme values may be limits of the assay; conditions: 72 h; IL-2 2.5 ng/mL
Procedure: (§1)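 Drug sensitivity and resistance testing on K562-aAPC-expanded normal NK cells: 5 concentrations (10-fold steps over a 10,000-fold range), 72 h at 37 °C, viability by CellTiter-Glo normalised to DMSO and benzethonium chloride controls; DSS from the fitted curve.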

[2] = system: normal NK cells expanded with K562-aAPC; assay: percent inhibition of viability; higher = more inhibition; conditions: 72 h, IL-2 2.5 ng/mL
Procedure: as §1

[3] = system: SNK-6 (IL-2 2.5 ng/mL); assay: drug sensitivity score (DSS) (DSS units); higher = more sensitive; extreme values may be limits of the assay; conditions: 72 h
[4] = system: normal primary NK cells, pool 3 (3 donors) (IL-2 2.5 ng/mL); assay: as above; conditions: 72 h
[5] = system: KAI3 (IL-2 2.5 ng/mL); assay: as above; conditions: 72 h
[6] = system: NK-YS (IL-2 2.5 ng/mL); assay: as above; conditions: 72 h
[7] = system: normal primary NK cells, pool 1 (3 donors) (IL-2 2.5 ng/mL); assay: as above; conditions: 72 h
[8] = system: NKL (IL-2 2.5 ng/mL); assay: as above; conditions: 72 h
[9] = system: IMC-1 (IL-2 20 ng/mL); assay: as above; conditions: 72 h
[10] = system: DERL-7 (IL-2 2.5 ng/mL); assay: as above; conditions: 72 h
[11] = system: YT (IL-2 2.5 ng/mL); assay: as above; conditions: 72 h
[12] = system: normal primary NK cells, pool 1 (3 donors), resting (IL-2 0 ng/mL); assay: as above; conditions: 72 h
[13] = system: NK-92 (IL-2 2.5 ng/mL); assay: as above; conditions: 72 h
[14] = system: normal primary NK cells, pool 2 (3 donors) (IL-2 2.5 ng/mL); assay: as above; conditions: 72 h
[15] = system: KHYG-1 (IL-2 2.5 ng/mL); assay: as above; conditions: 72 h
[16] = system: SNK-6 (IL-2 2.5 ng/mL); assay: percent inhibition of viability; higher = more inhibition; conditions: 72 h
[17] = system: normal primary NK cells, pool 3 (3 donors) (IL-2 2.5 ng/mL); assay: as above; conditions: 72 h
[18] = system: KAI3 (IL-2 2.5 ng/mL); assay: as above; conditions: 72 h
[19] = system: NK-YS (IL-2 2.5 ng/mL); assay: as above; conditions: 72 h
[20] = system: normal primary NK cells, pool 1 (3 donors) (IL-2 2.5 ng/mL); assay: as above; conditions: 72 h
[21] = system: NKL (IL-2 2.5 ng/mL); assay: as above; conditions: 72 h
[22] = system: IMC-1 (IL-2 20 ng/mL); assay: as above; conditions: 72 h
[23] = system: DERL-7 (IL-2 2.5 ng/mL); assay: as above; conditions: 72 h
[24] = system: YT (IL-2 2.5 ng/mL); assay: as above; conditions: 72 h
[25] = system: normal primary NK cells, pool 1 (3 donors), resting (IL-2 0 ng/mL); assay: as above; conditions: 72 h
[26] = system: NK-92 (IL-2 2.5 ng/mL); assay: as above; conditions: 72 h
[27] = system: normal primary NK cells, pool 2 (3 donors) (IL-2 2.5 ng/mL); assay: as above; conditions: 72 h
[28] = system: KHYG-1 (IL-2 2.5 ng/mL); assay: as above; conditions: 72 h

CO[C@H]1C[C@@H]2CC[C@@H](C)[C@@](O)(O2)C(=O)C(=O)N2CCCC[C@H]2C(=O)O[C@H]([C@H](C)C[C@@H]2CC[C@@H](OP(C)(C)=O)[C@H](OC)C2)CC(=O)[C@H](C)/C=C(\C)[C@@H](O)[C@@H](OC)C(=O)[C@H](C)C[C@H](C)/C=C/C=C/C=C/1C [Ridaforolimus] (max concentration tested 100 nM)
Conditions | drug sensitivity score
[1] | 1.24
[3] | 15.6
[4] | 0.06
[5] | 12.4
[6] | 16
[7] | 3.96
[8] | 19.2
[9] | 0
[10] | 13.3
[11] | 11.2
[12] | 9.48
[13] | 3.73
[14] | 2.58
[15] | 5.97

percent inhibition of viability [%]
Conditions | 0.01 nM | 0.1 nM | 1 nM | 10 nM | 100 nM
[2] | -10 | -8.61 | -0.94 | 10.6 | 16.8
[16] | -5.16 | -2.57 | 46.2 | 46 | 55
[17] | -5.53 | 6.52 | 5.98 | 8.12 | 11
[18] | -4.12 | -7.54 | 27.9 | 44 | 48.8
[19] | -0.81 | 5.33 | 44.5 | 49.8 | 54.8
[20] | -8.79 | 8.41 | 13.3 | 20.3 | 11.8
[21] | -1.33 | 21.2 | 50.1 | 55 | 58.3
[22] | -3.33 | -2.56 | -12.9 | -45.3 | -38.3
[23] | -15.4 | 2.83 | 28.9 | 51.2 | 57.3
[24] | -4.71 | -6.15 | 16.4 | 48.4 | 45.6
[25] | -5.23 | 14.6 | 24.1 | 30.7 | 28.2
[26] | -28.6 | -5.36 | -5.98 | 12.4 | 39
[27] | -12.7 | 6.23 | 9.36 | 16.1 | 19.1
[28] | -5.83 | -9.85 | 0.66 | 26.3 | 51.1

N#CC[C@H](C1CCCC1)n1cc(-c2ncnc3[nH]ccc23)cn1 [Ruxolitinib] (max concentration tested 10000 nM)
Conditions | drug sensitivity score
[1] | 26.7
[3] | 25.9
[4] | 18
[5] | 32.2
[6] | 19.8
[7] | 18.5
[8] | 32.6
[9] | 12.6
[10] | 27.1
[11] | 17.8
[12] | 0.6
[13] | 25.6
[14] | 19.8
[15] | 32.2

percent inhibition of viability [%]
Conditions | 1 nM | 10 nM | 100 nM | 1000 nM | 10000 nM
[2] | 2.08 | 18.6 | 65.1 | 97.8 | 98.6
[16] | 7.33 | 12.7 | 73.5 | 73.9 | 85.4
[17] | 3.79 | 6.55 | 43 | 64.5 | 74.2
[18] | 18.2 | 33.2 | 84.8 | 97.7 | 101
[19] | 3.29 | 10.2 | 48.2 | 68.6 | 84.1
[20] | 2.57 | 6.3 | 49.3 | 58 | 74.3
[21] | -1.94 | 49.5 | 75.1 | 94.7 | 101
[22] | 1.77 | -5.31 | 5.62 | 58.7 | 99.6
[23] | 9.24 | 20.8 | 64.2 | 101 | 101
[24] | 9.67 | 13.1 | 30.9 | 75.8 | 84.3
[25] | 7.5 | -6.83 | 11.8 | -24.4 | 27.4
[26] | 14.7 | 23.2 | 54.9 | 93.3 | 105
[27] | -1.35 | 14.5 | 50.1 | 65 | 71.7
[28] | 7.19 | 19.2 | 94.1 | 108 | 108

COc1ccc(CCc2nc3cc(-c4c(C)noc4C)ccc3n2C[C@H](C)N2CCOCC2)cc1Cl [SGC-CBP30] (max concentration tested 25000 nM)
Conditions | drug sensitivity score
[1] | 5.98
[3] | 2.41
[4] | 5.27
[5] | 2.09
[6] | 6.98
[7] | 9.22
[8] | 10.4
[9] | 1.04
[10] | 13.3
[11] | 5.56
[12] | 7.45
[13] | 2.67
[14] | 8.45
[15] | 8.22

percent inhibition of viability [%]
Conditions | 2.5 nM | 25 nM | 250 nM | 2500 nM | 25000 nM
[2] | -5.48 | -4.45 | -3.35 | 8.12 | 84.2
[16] | -3.48 | -9.35 | 6.99 | 15.5 | 20.9
[17] | -5.75 | -3.57 | 2.2 | 8.83 | 68.9
[18] | 1.53 | -3.88 | -18.5 | -12.8 | 51.8
[19] | -1.97 | -5.16 | 0.38 | 22.5 | 67.9
[20] | -4.81 | 2.68 | 13 | 33.8 | 96.6
[21] | 0.5 | 1.11 | 1.38 | 53.1 | 72.8
[22] | -7.53 | -9.31 | -8.36 | -20.2 | 35.3
[23] | 0.1 | 3.95 | 12.3 | 60.5 | 96.1
[24] | -1.31 | -7.71 | -7.11 | 10.1 | 70
[25] | 18.2 | 2.19 | 20.6 | 19.9 | 86
[26] | -16.2 | -20.5 | -26.2 | -17.7 | 64.4
[27] | -5.14 | -1.93 | 8.85 | 24.7 | 90.1
[28] | -1.44 | -8.58 | -1.59 | 16.4 | 99.4

CN1CCC(CNc2ccc3ncc(-c4cccc(OC(F)(F)F)c4)n3n2)CC1 [SGI-1776] (max concentration tested 10000 nM)
Conditions | drug sensitivity score
[1] | 9.44
[3] | 5.51
[4] | 6.78
[5] | 7.99
[6] | 6.92
[7] | 7.48
[8] | 8.62
[9] | 5.65
[10] | 10.6
[11] | 6.74
[12] | 9.01
[13] | 6.86
[14] | 9.22
[15] | 7.47

percent inhibition of viability [%]
Conditions | 1 nM | 10 nM | 100 nM | 1000 nM | 10000 nM
[2] | 0.39 | 2.03 | 3.74 | 25.6 | 101
[16] | 11.8 | -1.96 | 7.5 | -1.42 | 101
[17] | -9.4 | -9.39 | -5.33 | 7.82 | 100
[18] | -4.36 | -2.13 | -0.56 | 14.2 | 104
[19] | 2.39 | 2.07 | 3.08 | 7.09 | 105
[20] | -1.59 | -15.9 | 0.28 | 11.6 | 101
[21] | -15.4 | -12.2 | -2.55 | 18.8 | 103
[22] | -2.53 | -0.64 | 0.12 | -0.28 | 101
[23] | 4.46 | 1.8 | 11.3 | 43.9 | 101
[24] | 2.03 | -1.52 | 2.24 | 5.9 | 105
[25] | 4.88 | -2.56 | 18.3 | 29.4 | 99.8
[26] | 0.53 | 2.3 | 2.24 | 6.57 | 105
[27] | -5.28 | -4.01 | 7.14 | 23.6 | 102
[28] | 2.2 | 0.67 | 5.12 | 10.8 | 104

CC(C)(C)c1cnc(CSc2cnc(NC(=O)C3CCNCC3)s2)o1 [SNS-032] (max concentration tested 10000 nM)
Conditions | drug sensitivity score
[1] | 22.3
[3] | 13.4
[4] | 23.9
[5] | 25.1
[6] | 29
[7] | 28.1
[8] | 32.3
[9] | 29.5
[10] | 26.9
[11] | 24.9
[12] | 26.1
[13] | 19.8
[14] | 26.6
[15] | 18.7

percent inhibition of viability [%]
Conditions | 1 nM | 10 nM | 100 nM | 1000 nM | 10000 nM
[2] | 2.77 | 0 | 29.2 | 100 | 100
[16] | 17.9 | 2.01 | 31.7 | 54 | 38
[17] | -17.4 | -11.5 | 48.5 | 98.1 | 99
[18] | -8.15 | 9.55 | 57.9 | 103 | 98.3
[19] | -1.14 | 9.07 | 83.6 | 100 | 99.8
[20] | -14.2 | -9.83 | 88.9 | 98.2 | 98.8
[21] | -10.4 | 11.6 | 97.8 | 106 | 103
[22] | -4.98 | -6.51 | 97.6 | 99.1 | 98.8
[23] | 0.08 | -3.51 | 77.5 | 100 | 100
[24] | -0.35 | 4.14 | 57.7 | 103 | 101
[25] | -12.8 | -19.9 | 79.9 | 91.5 | 93.9
[26] | -11.5 | -4.07 | 11.5 | 98.8 | 101
[27] | -21 | -13.7 | 80.7 | 94.5 | 96.5
[28] | -2.99 | -6.55 | 4.29 | 102 | 102
